Each structure is given as a SMILES string.

For the assay, the system named is HCV (Ib) RNA replication. Briefly: Cell-based luciferase reporter HCV (1b) RNA replication assay (replicon cell lines Huh-7 5.2 and ET). Also noted: species or system Hepatitis C virus. To be noted: Hepatitis C virus, Huh-7, 96 h, HCV 1b genotype replicon, luciferase readout, 4 days incubation; read-out: EC50_1b. An excerpt:
Cell-Based Luciferase Reporter HCV (Ib) RNA Replication Assay Cell Culture
Replicon cell lines Huh-7, 5.2 and ET which are derived from the Huh-7 hepatocarcinoma cell line are maintained in culture as generally described in Krieger, N; Lohmann, V; Bartenschlager, R. Enhancement of hepatitis C virus RNA replication by cell culture-adaptive mutations. J. Virol. 2001, 75, 4614-4624. The Huh-7, 5.2 cells contain the highly cell culture-adapted replicon I389luc-ubi-neo/NS3-3′/5.1 construct that carries, in addition to the neomycin gene, an integrated copy to the firefly luciferase gene (Krieger, N; Lohmann, V; Bartenschlager, R. Enhancement of hepatitis C virus RNA replication by cell culture-adaptive mutations. J. Virol. 2001, 75, 4614-4624). This cell line allows measurement of HCV RNA replication and translation by measuring luciferase activity. It has been previously shown that the luciferase activity tightly follows the replicon RNA level in these cells (Krieger, N; Lohmann, V; Bartenschlager, R. Enhancement of hepatitis C virus RNA replication by cell culture-adaptive mutations. J. Virol. 2001, 75, 4614-4624). The Huh-7, ET cell line has the same features as those mentioned for Huh-7, 5.2 cell line, except that ET cells are more robust and contain an adaptative mutation in the HCV NS4B gene instead of NS5A. Both cell lines are maintained in cultures at a sub-confluent level (<85%) as the level of replicon RNA is highest in actively proliferating cells. The culture media used for cell passaging consist of DMEM (Gibco BRL Laboratories, Mississauga, ON, Canada) supplemented with 10% foetal bovine serum with 1% penicillin/streptomycin, 1% glutamine, 1% sodium pyruvate, 1% non-essential amino acids, and 180 ug/ml of G418 final concentration. Cells are incubated at 37° C., in an atmosphere of 5% CO2 and passaged twice a week to maintain sub-confluence.
Approximately 3000 viable Huh-7, 5.2 or ET cells (100 μl) are plated per well in a white opaque 96-well microtiter plate. The cell culture media used for the assay is the same as described above except that it contains no G418 and no phenol red. After an incubation period of 3-4 hours at 37° C. in a 5% CO2 incubator, compounds (100 μl) are added at various concentrations. Cells are then further incubated for 4 days at 37° C. in a 5% CO2 incubator. Thereafter, the culture media is removed and cells are lysed by the addition of 95 μL of the luciferase buffer (luciferin substrate in buffered detergent). Cell lysates are incubated at room temperature and protected from direct light for at least 10 minutes. Plates are read for luciferase counts using a luminometer (Wallac MicroBeta Trilux, Perkin ELmer™, MA, USA).
The 50% inhibitory concentrations (IC50s) for inhibitory effect are determined from dose response curves using eleven concentrations per compound in duplicate. Curves are fitted to data points using nonlinear regression analysis, and IC50s are interpolated from the resulting curve using GraphPad Prism software, version 2.0 (GraphPad Software Inc., San Diego, Calif., USA).
Table 2 show compounds representative of the present invention and the EC50 values against the HCV 1b genotype.
As for `O=C(OCc1ccccc1)N1CCC[C@H]1c1nc2cc(C#Cc3ccc4[nH]c([C@@H]5CCCN5C(=O)OCc5ccccc5)nc4c3)ccc2[nH]1` [Compound 31, (S)-2-{5-[2-((S)-1-Benzyloxycarbonyl-pyrrolidin-2-yl)-1H-benzoimidazol-5-ylethynyl]-1H-benzoimidazol-2-yl}-pyrrolidine-1-carboxylic acid benzyl ester], the EC50 fell in the range of 5 to 5000 nM.

For the compound `O=C([C@H]1CCCO1)N1CCC[C@H]1c1nc2cc(C#Cc3ccc4nc([C@@H]5CCCN5C(=O)[C@H]5CCCO5)[nH]c4c3)ccc2[nH]1` [Compound 32, [(S)-5-(5-{2-[(S)-1-((R)-tetrahydro-furan-2-carbonyl)-pyrrolidin-2-yl]-1H-benzoimidazol-5-ylethynyl}-1H-benzoimidazol-2-yl)-pyrrolidin-1-yl]-(R)-tetrahydro-furan-2-yl-methanone], the EC50 was in the range of 5 to 5000 nM.

On to `COC(=O)N[C@@H](C(=O)N1CCC[C@H]1c1nc2cc(C#Cc3ccc4[nH]c([C@@H]5CCCN5C(=O)[C@H](NC(=O)OC)c5ccccc5)nc4c3)ccc2[nH]1)c1ccccc1` [Compound 33, {(R)-2-[(S)-2-(5-{2-[(S)-1-((R)-2-Methoxycarbonylamino-2-phenyl-acetyl)-pyrrolidin-2-yl]-1H-benzoimidazol-5-ylethynyl}-1H-benzoimidazol-2-yl)-pyrrolidin-1-yl]-2-oxo-1-phenyl-ethyl}-carbamic acid methylester], for which the EC50 is at most 5 nM. As for `COC(=O)N[C@H](C(=O)N1CCC[C@H]1c1nc2cc(C#Cc3ccc4[nH]c([C@@H]5CCCN5C(=O)OC(C)(C)C)nc4c3)ccc2[nH]1)C(C)C` [Compound 34, (S)-2-(5-{2-[(S)-1-((S)-2-Methoxycarbonylamino-3-methyl-butyryl)-pyrrolidin-2-yl]-1H-benzoimidazol-5-ylethynyl}-1H-benzoimidazol-2-yl)-pyrrolidine-1-carboxylic acid tert-butyl ester], the figure is 5 to 5000 nM. As for `COC(=O)N[C@H](C(=O)N1CCC[C@H]1c1nc2cc(C#Cc3ccc4[nH]c([C@@H]5CCCN5C(=O)[C@@H](NC(=O)OC)C(C)(C)C)nc4c3)ccc2[nH]1)C(C)C` [Compound 36, {(S)-1-[(S)-2-(5-{2-[(S)-1-((S)-2-Methoxycarbonylamino-3-methyl-butyryl)-pyrrolidin-2-yl]-1H-benzoimidazol-5-ylethynyl}-1H-benzoimidazol-2-yl)-pyrrolidine-1-carbonyl]-2,2-dimethyl-propyl}-carbamic acid methyl ester], the EC50 was at most 5 nM.

Regarding `COC(=O)N[C@H](C(=O)N1CCC[C@H]1c1nc2cc(C#Cc3ccc4[nH]c([C@@H]5CCCN5C(=O)[C@@H](NC(=O)OC)C(C)C)nc4c3)ccc2[nH]1)C(C)C` [Compound 37, {(S)-1-[(S)-2-(5-{2-[(S)-1-((S)-2-Methoxycarbonylamino-3-methyl-butyryl)-pyrrolidin-2-yl]-1H-benzoimidazol-5-ylethynyl}-1H-benzoimidazol-2-yl)-pyrrolidine-1-carbonyl]-2-methyl-propyl}-carbamic acid methyl ester], the EC50 is at most 5 nM. As for `COC(=O)N[C@H](C(=O)N1CCC[C@H]1c1nc2cc(C#Cc3ccc4[nH]c([C@@H]5CCCN5C(=O)[C@H]5CCCO5)nc4c3)ccc2[nH]1)C(C)C` [Compound 38, {(S)-2-Methyl-1-[(S)-2-(5-{2-[(S)-1-((R)-tetrahydro-furan-2-carbonyl)-pyrrolidin-2-yl]-1H-benzoimidazol-5-ylethynyl}-1H-benzoimidazol-2-yl)-pyrrolidine-1-carbonyl]-propyl}-carbamic acid methyl ester], the figure is at most 5 nM; as for `COC(=O)N[C@H](C(=O)N1CCC[C@H]1c1nc2cc(C#Cc3ccc4[nH]c([C@@H]5CCCN5C(=O)[C@H](NC(=O)OC)c5ccccc5)nc4c3)ccc2[nH]1)C(C)C` [Compound 39, {(S)-1-[(S)-2-(5-{2-[(S)-1-((R)-2-Methoxycarbonylamino-2-phenyl-acetyl)-pyrrolidin-2-yl]-1H-benzoimidazol-5-ylethynyl}-1H-benzoimidazol-2-yl)-pyrrolidine-1-carbonyl]-2-methyl-propyl}-carbamic acid methyl ester], at most 5 nM.

The values are drawn from US8354419B2, “Benzimidazole analogues for the treatment or prevention of flavivirus infections” (Vertex Pharmaceuticals Incorporated, priority 2009, dated 2013).
